Assay results reported in PMC9739815, “Akt/mTOR Targeting Activity of Resveratrol Derivatives in Non-Small Lung Cancer” (Molecules, 2022).

Legend:
A549 cells [1] = test: MTT cell viability assay, A549 cells; type: cell-based; details: Homo sapiens, 24 h, 0–200 µM, read-out: IC50 ± SEM of NSCLC cells, A549
Description: (§1) NSCLC cells were cultured overnight and treated with various concentrations (0–200 µM) of resveratrol derivatives (RD1-RD5) and resveratrol for 24 h, and then cell viability was analyzed by the 3-(4, 5-dimethylthiazolyl-2)-2, 5-diphenyltetrazolium bromide (MTT) assay to evaluate the percentage of cell viability. All of the data were calculated on the basis of the results of three replicated samples. […] The difference of the structure at C-4 was that the hydroxyl group of RD2 was modified to the methoxy group of RD3 and at C-3, the methoxy group of RD2 was changed to the hydroxyl group of RD3. […] Furthermore, resveratrol decreased cell viability in NSCLC cells (A549, H23, and H460) with the IC50 at more than 200 µM which was the same RD3 (Figure 2a–d). This different action on cancer cells as a result of chemical structure modification has provided an insight for the structure–activity relationship that may facilitate the further development of the potent compound from the lead structure of resveratrol derivatives. Cell viability was investigated by MTT colorimetric assay. All cell lines were cultured at the density of 1 × 10^4 cells per well in a 96-well tissue culture plate and incubated in an incubator. After that, cells were treated with various concentrations of RD1-RD5 for 24 h at 37 °C and analyzed by the MTT assay according to the manufacturer’s protocol (Sigma Chemical, St. Louis, MO, USA). In calculating the cell viability by a microplate reader (Anthros, Durham, NC, USA), the measured absorbance of treated cells were divided by the value of untreated cells and are reported as a percentage.

H23 cells [2] = test: MTT cell viability assay, H23 cells; type: cell-based; details: Homo sapiens, NCI-H23, 24 h, 0–200 µM, read-out: IC50 ± SEM of NSCLC cells, H23
Description: as §1

H460 cells = test: MTT cell viability assay, H460 cells; type: cell-based; details: Homo sapiens, NCI-H460, 24 h, 0–200 µM, read-out: IC50 ± SEM of NSCLC cells, H460
Description: as §1

p-Akt/Akt in A549 cells = test: Western blot of p-Akt/Akt, A549 cells; type: cell-based, human; details: 12 h
Description: (§2) NSCLC cells (A549 and H23) were treated with RD2 and RD3 (10–100 μM) for 12 h. After which, all cells were collected and the expression levels of Akt, p-Akt, mTOR, and p-mTOR were investigated by Western blot analysis (Figure 5a, Figure 6a, Figure 7a and Figure 8a). […] Immunofluorescence staining of Akt, p-Akt, mTOR, and p-mTOR was performed in RD2 and RD3 treated cells. The results further confirm the effect of RD2 and RD3 on the Akt/mTOR pathway.
(§3) Western blotting was used to detect the presence of specific protein. Cells were seed at a density of 4 × 10^5 cells/well in 6 well plates overnight. Cells were treated with various concentrations RD1-RD5 were treated for 12 h. After treatment, the apoptosis cells were collected by centrifuging media with 1500 rpm for 5 min and aspirating supernatants. Then, cells were washed with cold 1× PBS and incubated with 1X RIPPA 40 µL containing 10× RIPA buffer 100 µL, protease inhibitors (PI) 100 µL, PMSF 10 µL, and Triton × 10 µL for 30 min on ice. BCA protein assay kit from Pierce Biotechnology (Rockford, IL, USA) analyzed protein concentrations. The extracted proteins were separated by 7.5–10% sodium dodecyl sulfate polyacrylamide gel electrophoresis (SDS-PAGE) and transferred to polyvinylidene difluoride membrane (PVDF). Then, the membranes were blocked with 5% non-fat milk powder for 2 h. After that, they were incubated with primary antibody at 4 °C Akt (#9272), phosphorylated Akt (#4060), mTOR (#2983S), and p-mTOR (#5536S) overnight. The membranes were washed with Tris-buffered saline/Tween 20 3 times and incubated with secondary antibodies for 2 h. Finally, the protein bands were detected using chemiluminescence substrate and exposed by Chemiluminescent ImageQuant LAS4000. Protein bands were analyzed using Image J software.

A549 cells [3] = test: Hoechst 33342/PI nuclear staining apoptosis assay, A549 cells; type: cell-based, human; details: 24 h
Description: (§4) Apoptosis is considered as an important mechanism of action of anti-cancer drugs. The important characteristics of apoptotic cells include the nuclear morphological changes, chromatin condensation, and DNA fragmentation. Hoechst 33342 and propidium iodide (PI) double staining was utilized to determine the mode of cell death by monitoring the nucleus morphology of apoptotic cells as well as their membrane integrity. Cells were seeded in a 96-well plate at the density of 1 × 10^4 cells/well and treated with various concentrations of RD2 and RD3 (10–200 μM) for 24 h. The cells were co-stained with Hoechst 33342 and PI. […] The red fluorescence of PI indicated a late apoptosis cell and necrotic cells.
(§5) This method was applied to define apoptotic and necrotic cell death by using nuclear staining with Hoechst 33342. The cells were seeded on 96-well plates at the density 1 × 10^4 cells per well in 96-well plates and incubated overnight. The cells were treated with various concentrations of RD1-RD5 and incubated for 24 h at 37 °C. Afterward, the cells were incubated with Hoechst 33342 (10 μg/mL) / PI (5 μg/mL) solution for 30 min at 37 °C. Then, they were visualized and imaged under a fluorescence microscope (Olympus DP70, Melville, NY, USA). Results are reported as a percentage of apoptotic cells.

[4] = tested on: p-mTOR/mTOR in A549 cells; test: Western blot of p-mTOR/mTOR, A549 cells; type: cell-based, human; details: 12 h
Description: as §2, §3

DP cells = test: MTT cell viability assay, normal dermal papilla (DP) cells; type: cell-based; details: 24 h; for effect on cell viability percentages in DP cells: normal human dermal papilla cells; for IC50: Human dermal papilla cell, 0–200 µM, read-out: IC50 ± SEM of DP cells
Description: To confirm the selective cytotoxicity of resveratrol derivatives (RD2 and RD3) in cancer cells, resveratrol derivatives (RD2 and RD3) and resveratrol were determined for the cytotoxic profile in normal human cells, dermal papilla (DP).
Cell viability was investigated by MTT colorimetric assay. All cell lines were cultured at the density of 1 × 10^4 cells per well in a 96-well tissue culture plate and incubated in an incubator. After that, cells were treated with various concentrations of RD1-RD5 for 24 h at 37 °C and analyzed by the MTT assay according to the manufacturer’s protocol (Sigma Chemical, St. Louis, MO, USA). In calculating the cell viability by a microplate reader (Anthros, Durham, NC, USA), the measured absorbance of treated cells were divided by the value of untreated cells and are reported as a percentage.

p-mTOR/mTOR in H23 cells = test: Western blot of p-mTOR/mTOR, H23 cells; type: cell-based, human; details: 12 h
Description: as §2, §3

H23 cells [5] = test: Colony formation assay, H23 cells; type: cell-based, human; details: for reduction of number of forming colonies: 24 h treatment, 7 days; for reduction of number of forming colonies / decrease of colony size: vs control
Description: (§6) Colony formation assay was used to confirm the anti-cancer action of resveratrol derivatives, as it is a cell proliferation assay which can detect the ability of a single cell to grow into a colony. NSCLC cells were seeded and treated with RD2 and RD3 (1–200 μM) for 24 h. The treated cells were subjected to colony formation assay for 7 days. The crystal violet-staining colony represented the colony suppression effect of RD2 and RD3 compared to the untreated control (Figure 3a,b). The RD2 compound dramatically abolished the forming colony. Colony number was absent in response to RD2 at the concentrations of 100 and 200 μM, whereas there was no significant response to RD3 (Figure 3a,b).
(§7) Cells were seeded at a density of 300 cells/well into 6-well plate and then further treated with various concentrations resveratrol derivatives for 24 h after that the medium was replaced and the cell were incubated for colony number and colony size were investigated after fixing with methanol and acetic acid (3:1) solution and staining with 0.05% w/v crystal violet in 4% formaldehyde.

p-mTOR in A549 cells = test: Immunofluorescence staining of p-mTOR, A549 cells; type: cell-based, human; details: 12 h, RD2 effect at 50–100 μM
Description: as §2
(§8) Cells were seeded at a density of 1 × 10^4 cells/well in 6-well plates overnight. Cells were treated with various concentrations resveratrol derivatives ([…]) and were treated for 12 h. Then, they were fixed with 4% paraformaldehyde in PBS for 15 min, permeabilized for 5 min with 0.5% Triton-X, and blocked with 0.1% Triton-X in 10% FBD in PBS for 1 h at room temperature. Cells were added to the primary antibody Akt (#9272), phosphorylated Akt (#4060), mTOR (#2983S), and p-mTOR (#5536S). Then, they were incubated at 4 °C overnight. After that, they were incubated with secondary antibody for 1 h and stained with Hoechst 33342 for 30 min at room temperature in a dark place. The images were visualized under a fluorescent microscope (Olympus DP70, Melville, NY, USA) and analyzed by The ImageJ software.

p-mTOR in H23 cells = test: Immunofluorescence staining of p-mTOR, H23 cells; type: cell-based, human; details: 12 h, RD2 effect at 50–100 μM
Description: as §2, §8

H23 cells [6] = test: Hoechst 33342/PI nuclear staining apoptosis assay, H23 cells; type: cell-based, human; details: 24 h
Description: as §4, §5

p-Akt/Akt in H23 cells = test: Western blot of p-Akt/Akt, H23 cells; type: cell-based, human; details: 12 h
Description: as §2, §3

A549 cells [7] = test: Colony formation assay, A549 cells; type: cell-based, human; details: for reduction of number of forming colonies: 24 h treatment, 7 days; for reduction of number of forming colonies / decrease of colony size: vs control
Description: as §6, §7

p-Akt in A549 cells = test: Immunofluorescence staining of p-Akt, A549 cells; type: cell-based, human; details: 10–100 µM, vs untreated control
Description: as §2, §8

p-Akt in H23 cells = test: Immunofluorescence staining of p-Akt, H23 cells; type: cell-based, human; details: 10–100 µM, vs untreated control
Description: as §2, §8

IC50 (A549 cells [1]) [µM] | IC50 (H460 cells) [µM] | Compound | IC50 (H23 cells [2]) [µM] | apoptotic ratio (A549 cells [3]; 200 μM) [%] | effect on cell viability percentages in DP cells (DP cells) | IC50 (DP cells) [µM] | reduction of number of forming colonies (H23 cells [5]; 10 μM) [%] | reduction of number of forming colonies (H23 cells [5]; 100 μM) [%] | reduction of number of forming colonies (H23 cells [5]; 200 μM) [%] | p-mTOR signal intensity (p-mTOR in A549 cells) | p-mTOR signal intensity (p-mTOR in H23 cells) | apoptotic ratio (H23 cells [6]; 200 μM) [%] | reduction of number of forming colonies (A549 cells [7]; 10 μM) [%] | reduction of number of forming colonies (A549 cells [7]; 100 μM) [%] | reduction of number of forming colonies (A549 cells [7]; 200 μM) [%] | also measured
164 ± 26.2 | > 200 | COc1cc(CCc2cc(C)c(OC)c(O)c2)cc(OC)c1O [RD1, 5-(4-hydroxy-3,5-dimethoxyphenethyl)-2-methoxy-3-methylphenol] | 129 ± 8.91 |  |  |  |  |  |  |  |  |  |  |  |  | 
109 ± 10.8 | 138 ± 25.6 | COc1cc(CCc2ccc(O)c(OC)c2)ccc1O [RD2, 4,4′-(ethane-1,2-diyl)bis(2-methoxyphenol)] | 104 ± 6.08 | 86.30 | did not significantly affect | > 200 | 25.43 | 94.16 | 98.23 | dramatic decrease | dramatic decrease | 75.79 | 31.04 | 98.18 | 99.40 | p-Akt/Akt protein expression levels (p-Akt/Akt in A549 cells; A549 cells, 50 μM, vs untreated control): significant decrease; p-Akt/Akt protein expression levels (p-Akt/Akt in A549 cells; A549 cells, 100 μM, vs untreated control): significant decrease; apoptotic ratio (A549 cells [3]; 10 μM): 23.25%; apoptotic ratio (A549 cells [3]; 100 μM): 61.26%; p-mTOR/mTOR protein expression levels ([4]; 100 μM, vs untreated control): significant decrease; p-mTOR/mTOR protein expression levels (p-mTOR/mTOR in H23 cells; 100 μM, vs untreated control): significant decrease; decrease of colony size (H23 cells [5]; 100 μM): 64.42%; decrease of colony size (H23 cells [5]; 200 μM): 65.98%; apoptotic ratio (H23 cells [6]; 100 μM): 36.63%; p-Akt/Akt protein expression levels (p-Akt/Akt in H23 cells; 50 μM, vs untreated control): significant decrease; p-Akt/Akt protein expression levels (p-Akt/Akt in H23 cells; 100 μM, vs untreated control): significant decrease; decrease of colony size (A549 cells [7]; 100 μM): 71.66%; decrease of colony size (A549 cells [7]; 200 μM): 85.42%
> 200 | > 200 | COc1ccc(CCc2ccc(O)c(OC)c2)cc1O [RD3, 4-(3-hydroxy-4-methoxyphenethyl)-2-methoxyphenol] | > 200 | 13.25 | did not significantly affect | > 200 | 24.83 | 27.70 | 59.74 | only minimally affected | only minimally affected | 18.57 | 20.44 | 21.94 | 38.91 | p-Akt/Akt protein expression levels (p-Akt/Akt in A549 cells; A549 cell, 10–200 μM): increased; p-Akt intensity (p-Akt in A549 cells): significantly increased; p-mTOR/mTOR protein expression levels ([4]; 10–100 μM): no effect; p-mTOR/mTOR protein expression levels (p-mTOR/mTOR in H23 cells; 10–100 μM): no effect; effect on colony size (H23 cells [5]; 10–200 μM): no significant effect; p-Akt/Akt protein expression levels (p-Akt/Akt in H23 cells; 10–100 μM): increased; effect on colony size (A549 cells [7]; 10–200 μM): no significant effect; p-Akt intensity (p-Akt in H23 cells): significantly increased
